Results on twelve compounds are retold here after patent US20250221998A1, “DISCOVERY OF COVALENT EGFR INHIBITOR THROUGH CYSTEINE 775” (Dana-Farber Cancer Institute, Inc., priority 2022, published 2025).

The target of experiment [1] is EGFR mutant L858R Ba/F3 cells (Homo sapiens, UniProt P00533, L858R, cells depend on it). Briefly: Ba/F3 cell proliferation (Cell Titer Glo), EGFR L858R. Format: cell-based, murine. To be noted: 72 hours exposure, read-out: L858R BaF3 (μM), inhibitory activity against EGFR mutants. The source says: (§1) The EGFR mutant L858R Ba/F3 cells have been previously described (Zhou, W., et al. Nature 462, 2009, 1070-1074). The EGFR C797S and C775S mutations were introduced via site directed mutagenesis using the Quick Change Site-Directed Mutagenesis kit into a vector containing EGFR L858R mutation (Stratagene; La Jolla, CA) according to the manufacturer's instructions. All constructs were confirmed by DNA sequencing. The constructs were then shuttled into the retroviral vector JP1540 by either using the Cre-recombination system (Agilent Technologies, Santa Clara, CA) or the In-fusion HD Cloning kit (Takara Bio USA, Inc.; Mountain view, CA). Ba/F3 cells were then infected with retrovirus per standard protocols, as described previously (Zhou, et al, Nature 2009). Stable clones were obtained by selection in puromycin (2 ug/ml). All BaF/3 mutant cells were maintained in RPMI 1640 (Cellgro; Mediatech Inc., Herndon, CA) supplemented with 10% FBS, 100 units/mL penicillin, 100 units/mL streptomycin.
Chain of EGFR mutant L858R Ba/F3 cells (P00533 whole entry L858R, the tested form may be a part): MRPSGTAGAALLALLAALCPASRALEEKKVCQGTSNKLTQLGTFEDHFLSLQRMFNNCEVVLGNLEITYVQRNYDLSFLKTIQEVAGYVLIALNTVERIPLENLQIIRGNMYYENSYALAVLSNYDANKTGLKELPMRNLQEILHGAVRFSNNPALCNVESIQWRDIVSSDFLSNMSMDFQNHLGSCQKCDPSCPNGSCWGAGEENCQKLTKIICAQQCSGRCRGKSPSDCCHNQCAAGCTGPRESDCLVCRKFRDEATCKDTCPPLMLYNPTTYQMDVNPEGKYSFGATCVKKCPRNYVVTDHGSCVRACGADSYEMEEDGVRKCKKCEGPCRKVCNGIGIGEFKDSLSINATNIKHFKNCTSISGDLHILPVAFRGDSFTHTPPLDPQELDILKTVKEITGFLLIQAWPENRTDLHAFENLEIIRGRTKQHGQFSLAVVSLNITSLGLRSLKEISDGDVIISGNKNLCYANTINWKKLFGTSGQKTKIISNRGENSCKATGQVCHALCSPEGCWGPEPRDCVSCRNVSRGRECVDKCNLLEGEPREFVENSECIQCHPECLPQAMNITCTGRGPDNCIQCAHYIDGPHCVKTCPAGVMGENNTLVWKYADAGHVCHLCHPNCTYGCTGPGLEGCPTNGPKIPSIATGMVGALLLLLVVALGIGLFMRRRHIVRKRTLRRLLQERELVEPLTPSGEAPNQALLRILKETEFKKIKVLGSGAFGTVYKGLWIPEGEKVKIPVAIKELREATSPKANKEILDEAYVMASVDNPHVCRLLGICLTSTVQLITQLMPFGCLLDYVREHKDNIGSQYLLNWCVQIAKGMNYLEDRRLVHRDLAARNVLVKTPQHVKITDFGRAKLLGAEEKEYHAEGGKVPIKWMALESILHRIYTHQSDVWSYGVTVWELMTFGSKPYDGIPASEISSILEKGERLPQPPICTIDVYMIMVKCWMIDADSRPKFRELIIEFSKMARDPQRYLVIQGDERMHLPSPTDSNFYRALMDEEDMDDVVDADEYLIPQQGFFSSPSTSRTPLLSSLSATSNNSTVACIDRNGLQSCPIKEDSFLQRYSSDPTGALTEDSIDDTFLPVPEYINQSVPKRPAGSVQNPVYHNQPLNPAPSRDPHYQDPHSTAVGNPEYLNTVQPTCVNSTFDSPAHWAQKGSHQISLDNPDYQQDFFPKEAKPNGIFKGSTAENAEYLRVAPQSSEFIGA
(§2) Growth and inhibition of growth was assessed by the Cell Titer Glo assay (Promega, Madison, WI) and was performed according to the manufacturer's instructions. The Cell Titer Glo assay is a luminescence-based method used to determine the number of viable cells based on quantitation of the ATP present, which is directly proportional to the amount of metabolically active cells present. Ba/F3 cells of different EGFR genotypes were exposed to compounds for 72 hours and the number of cells used per experiment was determined empirically as has been previously established (Zhou, et al., Nature 2009). All experimental points were set up in triplicates in 384-well plates. […] The curves were fitted using a non-linear regression model with a sigmoidal dose response.
(§3) For inhibitory activity against EGFR mutants, the following designations are used: ≤0·25 μM=A, 0·25 μM˜0.5 μM=B, 0.5 μM˜2.5 μM=C, ≥2.5 μM=D.
In general terms: ATP-based viability assays read luminescence as a measure of living cells.

Experiment [2] addresses EGFR L858R/C797S Ba/F3 cells (Homo sapiens, UniProt P00533, C797S/L858R, cells depend on it). Nature of the experiment: Ba/F3 cell proliferation (Cell Titer Glo), EGFR L858R/C797S. Format: cell-based, murine. The conditions noted are these: 72 hours exposure, read-out: L858R/C797S (μM), inhibitory activity against EGFR mutants.
Source text: as §1, §2, §3

Chain of EGFR L858R/C797S Ba/F3 cells (P00533 whole entry C797S/L858R): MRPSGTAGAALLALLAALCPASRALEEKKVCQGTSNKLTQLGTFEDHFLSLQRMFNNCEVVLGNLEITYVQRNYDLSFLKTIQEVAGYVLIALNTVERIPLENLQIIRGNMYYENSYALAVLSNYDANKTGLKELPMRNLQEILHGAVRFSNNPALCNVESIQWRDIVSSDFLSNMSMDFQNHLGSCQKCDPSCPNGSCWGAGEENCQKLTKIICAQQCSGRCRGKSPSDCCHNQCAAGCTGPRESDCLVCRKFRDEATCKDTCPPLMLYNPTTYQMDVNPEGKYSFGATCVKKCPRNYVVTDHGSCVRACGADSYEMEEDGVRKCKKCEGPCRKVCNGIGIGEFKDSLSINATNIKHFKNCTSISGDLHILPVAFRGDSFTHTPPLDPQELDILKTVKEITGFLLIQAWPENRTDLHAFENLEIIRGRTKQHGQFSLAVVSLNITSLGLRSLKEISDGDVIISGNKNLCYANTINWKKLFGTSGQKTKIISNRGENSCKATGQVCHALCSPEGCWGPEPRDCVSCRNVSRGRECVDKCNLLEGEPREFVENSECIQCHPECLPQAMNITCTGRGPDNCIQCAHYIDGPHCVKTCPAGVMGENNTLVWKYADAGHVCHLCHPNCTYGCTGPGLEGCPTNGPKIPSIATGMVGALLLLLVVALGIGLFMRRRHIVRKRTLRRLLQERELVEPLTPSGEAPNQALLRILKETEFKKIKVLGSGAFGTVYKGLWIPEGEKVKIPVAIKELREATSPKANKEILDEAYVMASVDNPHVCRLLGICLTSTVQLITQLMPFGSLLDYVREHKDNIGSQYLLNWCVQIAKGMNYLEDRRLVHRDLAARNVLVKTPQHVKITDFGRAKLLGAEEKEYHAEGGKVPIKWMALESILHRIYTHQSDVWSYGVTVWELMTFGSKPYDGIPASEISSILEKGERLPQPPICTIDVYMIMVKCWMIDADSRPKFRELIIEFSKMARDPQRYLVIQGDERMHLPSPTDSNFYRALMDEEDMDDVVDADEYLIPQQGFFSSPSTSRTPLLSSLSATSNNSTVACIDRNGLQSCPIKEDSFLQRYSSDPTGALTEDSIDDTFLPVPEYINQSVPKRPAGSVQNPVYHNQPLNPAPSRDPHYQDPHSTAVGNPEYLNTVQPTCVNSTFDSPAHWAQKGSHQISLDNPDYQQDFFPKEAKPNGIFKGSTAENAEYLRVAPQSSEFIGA

Consider `C=CC(=O)N1CCN(c2cc3cnc(Nc4ccc(OCCN(C)C)cc4)nc3n(C)c2=O)c2cc(O)ccc21` [Compound 078, 2-[4-[2-(dimethylamino)ethoxy]anilino]-6-(7-hydroxy-4-prop-2-enoyl-2,3-dihydroquinoxalin-1-yl)-8-methyl-pyrido[2,3-d]pyrimidin-7-one], for which the GI50 in experiment [1] and in experiment [2] was no more than 0.25 µM each time.
Turning to `C=C(F)C(=O)NC1CCN(c2cc3cnc(Nc4cnn(CCO)c4)nc3n(C)c2=O)CC1` [Compound 018], the GI50 in experiment [1] and in experiment [2] was no less than 2.5 µM in each case.
For the compound `C=CC(=O)N1CCN(c2cc3cnc(Nc4ccc(N5CCN(C)CC5)cc4)nc3n(C)c2=O)c2cccc(C)c21` [Compound 019, 8-methyl-2-[4-(4-methylpiperazin-1-yl)anilino]-6-(5-methyl-4-prop-2-enoyl-2,3-dihydroquinoxalin-1-yl)pyrido[2,3-d]pyrimidin-7-one], the GI50 in experiment [1] and in experiment [2] was no more than 0.25 µM each time.
Turning to `C=CC(=O)N1CCN(c2cc3cnc(Nc4ccc(OCCN(C)C)cc4)nc3n([C@H]3C[C@@H](O)C3)c2=O)c2cccc(C)c21` [Compound 043], the GI50 in experiment [1] and in experiment [2] was no more than 0.25 µM in each case.
On to `C=CC(=O)N1CCN(c2cc3cnc(Nc4ccc(OCCN(C)C)c(F)c4)nc3n(C)c2=O)c2cccc(C)c21` [Compound 075], for which the GI50 in experiment [1] and in experiment [2] was no more than 0.25 µM throughout.
As for `C=CC(=O)N1CCN(c2cc3cnc(Nc4ccc(OCCN(C)C)cc4)nc3n(C3CC(F)(F)C3)c2=O)c2cccc(C)c21` [Compound 055, 8-(3,3-difluorocyclobutyl)-2-[4-[2-(dimethylamino)ethoxy]anilino]-6-(5-methyl-4-prop-2-enoyl-2,3-dihydroquinoxalin-1-yl)pyrido[2,3-d]pyrimidin-7-one], the GI50 in experiment [1] and in experiment [2] was no more than 0.25 µM each time.
On to `C=CC(=O)N1CCN(c2cc3cnc(Nc4ccc(OCCN5CCCC5)cc4)nc3n(C)c2=O)c2cccc(C)c21` [Compound 032], for which the GI50 in experiment [1] and in experiment [2] was no more than 0.25 µM each time.
In the case of `C=CC(=O)N1CCN(c2cc3cnc(Nc4ccccc4)nc3n([C@H]3C[C@H](O)C3)c2=O)c2cccc(C)c21` [Compound 070], the GI50 in experiment [1] and in experiment [2] was no more than 0.25 µM throughout.
Take `C=CC(=O)N1CCN(c2cc3cnc(Nc4ccc(OCCN(C)C)cc4)nc3n(C)c2=O)c2cccc(O)c21` [Compound 066, 2-[4-[2-(dimethylamino)ethoxy]anilino]-6-(5-hydroxy-4-prop-2-enoyl-2,3-dihydroquinoxalin-1-yl)-8-methyl-pyrido[2,3-d]pyrimidin-7-one]: the GI50 in experiment [1] and in experiment [2] was no more than 0.25 µM each time.
As to `C=CC(=O)N1CCN(c2cc3cnc(NC4CC4)nc3n(-c3ccc(N(C)CCN(C)C)cc3)c2=O)c2cccc(C)c21` [Compound 095, 2-(cyclopropylamino)-8-[4-[2-(dimethylamino)ethyl-methyl-amino]phenyl]-6-(5-methyl-4-prop-2-enoyl-2,3-dihydroquinoxalin-1-yl)pyrido[2,3-d]pyrimidin-7-one], the GI50 in experiment [1] and in experiment [2] was no more than 0.25 µM each time.
As for `C=CC(=O)N1CCN(c2cc3cnc(N)nc3n([C@H]3CC[C@H](OC)CC3)c2=O)c2cccc(C)c21` [Compound 086, 2-amino-8-(4-methoxycyclohexyl)-6-(5-methyl-4-prop-2-enoyl-2,3-dihydroquinoxalin-1-yl)pyrido[2,3-d]pyrimidin-7-one], the GI50 in experiment [1] and in experiment [2] was no more than 0.25 µM throughout.
As to `C=CC(=O)N1CCN(c2cc3cnc(NC4CC4)nc3n(C3CCOC3)c2=O)c2cccc(C)c21` (stereo not drawn) [Compound 096, 2-(cyclopropylamino)-6-(5-methyl-4-prop-2-enoyl-2,3-dihydroquinoxalin-1-yl)-8-tetrahydrofuran-3-yl-pyrido[2,3-d]pyrimidin-7-one], the GI50 in experiment [1] and in experiment [2] was no more than 0.25 µM in each case.
